For 16 compounds, TGI and GI50 results are on record in PubChem BioAssay (NCI).

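Step 1: Grow cells in 96-well plates. Step 2: Expose to compound for 48 hours at 5 concentrations. Step 3: Interpolate endpoints linearly; if unreached, use highest concentration. GI50 marks 50% less growth. At the TGI there is no net growth.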

What all share (experiment): growth of human tumour cells (NCI), 48 h
For experiment [1], the system named is HOP-92 NSCLC.
Experiment [2] relates to MOLT-4 leukemia.
For experiment [3], the system named is RXF 393 renal.
Experiment [4] has as its system HOP-62 NSCLC.
Experiment [5] deals with HCT-116 colon.
Experiment [6] concerns HCC-2998 colon.
Experiment [7] has as its system HL-60(TB) leukemia.
For experiment [8], the system named is CAKI-1 renal.

For `COC(=O)N/N=C(\C)CC(=O)Nc1ccc(Cl)cc1`, the TGI in experiment [1], in experiment [2], in experiment [3], in experiment [4], in experiment [5] and in experiment [6] was > 100 µM each time. Further, in experiment [7], the TGI was > 100 µM.
On to `O=C1NC2C(O)CCCCC2C12CCCCC2` (stereo unspecified), for which the TGI in experiment [1], in experiment [2], in experiment [3], in experiment [4], in experiment [5] and in experiment [8] was > 100 µM in each case. For the same compound, the TGI in experiment [7] is > 100 µM.
For `O=C1Nc2cc(F)ccc2C1=O`, the TGI in experiment [1], in experiment [2], in experiment [3], in experiment [4], in experiment [6] and in experiment [8] was > 100 µM each time. Also, the TGI in experiment [7] was > 100 µM.
In the case of `C[CH2][Sn]([CH2]C)([O]C(=O)c1ccc(F)cc1)[O]C(=O)c1ccc(F)cc1`, the GI50 in experiment [1] is 12.7 µM; in experiment [2] it was 26.7 µM; in experiment [3], 13.7 µM; in experiment [4], 62.6 µM; in experiment [5] it was 33 µM; in experiment [6], 90.9 µM. The results for the GI50 in experiment [8] and in experiment [7] were 4.05 µM and 60.5 µM, respectively. Besides, the TGI was 26 µM in experiment [1]; > 85.1 µM in experiment [2]; 28.8 µM in experiment [3]; > 100 µM in experiment [4]; > 55.8 µM in experiment [5]; > 100 µM in experiment [6]. Further, the values for the TGI in experiment [8] and in experiment [7] were 16.3 µM and > 100 µM, respectively.
Take `NC(=O)c1ccc(Cl)c([N+](=O)[O-])c1`: the TGI in experiment [1], in experiment [2], in experiment [3], in experiment [4], in experiment [5] and in experiment [6] was > 100 µM each time. The TGI in experiment [8] and in experiment [7] was > 100 µM throughout.
Turning to `COC(=O)CC[C@]12C[C@]13CC[C@]1(C)C4C(C)C[C@]5(CC(C)C(=O)O5)OC4CC1(C)C3CCC2C(C)(C)O` (stereo partly specified), the TGI in experiment [1] is 65.1 µM; in experiment [3], > 100 µM; in experiment [4], > 100 µM; in experiment [5] it was > 100 µM; in experiment [6] it was > 100 µM; in experiment [7] it was 66.1 µM.
Consider `CCC(CO)Nc1nc2c(c(=O)n(C)c(=O)n2C)n1CCO` (stereo unspecified), for which the TGI in experiment [1], in experiment [2], in experiment [3], in experiment [5] and in experiment [6] was > 100 µM throughout.
For `Nc1c2ccccc2nc2c(C(=O)Nc3ccc(S(N)(=O)=O)cc3)cccc12`, the TGI in experiment [2] was 58.6 µM; in experiment [3], > 100 µM; in experiment [4] it was > 100 µM; in experiment [5], > 100 µM; in experiment [6] it was > 100 µM; in experiment [8] it was > 100 µM.
`c1ccc(OC2=NC3=S(S2)SC(Oc2ccccc2)=N3)cc1`: the TGI in experiment [2] was 31 µM; in experiment [3], 24.2 µM; in experiment [4], 67.1 µM; in experiment [5] it was 33.4 µM; in experiment [6], 35.2 µM; in experiment [8], 34.3 µM. Moreover, the TGI in experiment [7] was determined as 42.5 µM.
Consider `CC(C)(C)N=NC(C)(C)N=C=O`, for which the TGI in experiment [1], in experiment [2], in experiment [3], in experiment [4], in experiment [5] and in experiment [8] was > 100 µM in each case. For the same compound, the TGI in experiment [7] was > 100 µM.
Take `CC(=O)[O-].N.N.N.N.[Co+3].[O-][Cl+3]([O-])([O-])[O-].[OH3+]`: the GI50 in experiment [1], in experiment [2], in experiment [4], in experiment [5], in experiment [6] and in experiment [7] was > 100 µM in each case. In addition, the TGI in experiment [1], in experiment [2], in experiment [4], in experiment [5], in experiment [6] and in experiment [7] was > 100 µM each time.
For `C=C1C[C@@H]2C[C@@H](C)CC(O)[C@]2(CCCN)C1O` (stereo partly specified), the TGI in experiment [1], in experiment [2], in experiment [3], in experiment [4], in experiment [5] and in experiment [6] was > 100 µM throughout. Moreover, the TGI in experiment [8] and in experiment [7] was > 100 µM each time.
Take `CC1c2[nH]c3ccccc3c2CCN1O` (stereo unspecified): the TGI in experiment [1], in experiment [2], in experiment [3], in experiment [5], in experiment [6] and in experiment [8] was > 100 µM in each case. In experiment [7], the TGI is > 100 µM.
Regarding `COc1cc2cnc3c4cc(OCc5ccccc5)ccc4ccc3c2cc1OC`, the TGI was > 100 µM in experiment [1]; 30.9 µM in experiment [2]; 47.6 µM in experiment [3]; 76.5 µM in experiment [4]; > 100 µM in experiment [5]; > 100 µM in experiment [6]. Further, the TGI in experiment [8] is > 100 µM; in experiment [7] it was 9.27 µM.
Consider `O/N=C/c1ccc(O)c(O)c1`, for which the TGI in experiment [1], in experiment [2], in experiment [3], in experiment [4], in experiment [5] and in experiment [6] was > 100 µM each time. Also, the TGI is > 100 µM in experiment [8] and 58.8 µM in experiment [7].
As for `COc1ccc([C@@H]2OC(=O)C3C2C(=O)O[C@H]3c2ccc(OC)c(OC)c2)cc1OC` (stereo partly specified), the TGI in experiment [1], in experiment [2], in experiment [3], in experiment [4], in experiment [5] and in experiment [6] was > 100 µM throughout. The TGI in experiment [7] was > 100 µM.
